A word on the IC50: it is the midpoint of a concentration-inhibition curve. A high value points to weaker potency.

The results in this text go back to patent publication US20230086702A1, “SUBSTITUTED 2-AMINO-PYRAZOLYL-[1,2,4]TRIAZOLO[1,5A]PYRIDINE DERIVATIVES AND USE THEREOF” (The Johns Hopkins University, priority 2019, published 2023).

For one experiment, the target named is T1, DLK (Homo sapiens, UniProt Q12852).
T1 construct: 10 nM DLK, catalytic domain, Carna Biosiences; purchased Carna Biosciences ('Carna Biosiences' [sic])
T1 sequence (Q12852 125-366 limits assumed): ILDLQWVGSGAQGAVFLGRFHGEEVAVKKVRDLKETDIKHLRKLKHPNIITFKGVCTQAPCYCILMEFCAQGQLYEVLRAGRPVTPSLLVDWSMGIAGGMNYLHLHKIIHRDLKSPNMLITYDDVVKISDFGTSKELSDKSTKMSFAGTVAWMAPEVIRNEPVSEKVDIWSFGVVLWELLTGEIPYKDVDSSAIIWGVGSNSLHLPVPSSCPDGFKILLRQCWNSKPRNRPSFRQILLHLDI
Kind of experiment: DLK biochemical assay (TR-FRET, MKK7 phosphorylation). The note with it: DLK catalytic domain, MKK7 substrate, 60 μM ATP. An outline of the steps:
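TR-FRET read-out (ratio of 665 nm acceptor to Eu donor channel) tracks MKK7 T275/S277 phosphorylation by DLK, using Eu-labelled anti-phospho-MKK7 and XL665-labelled anti-His on His-MKK7. Reactions were stopped and detected in pH 7.5 Tris buffer containing 100 mM EDTA, 100 mM NaCl, 200 mM KF and 0.01% Tween 20.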
A general note: In TR-FRET formats the signal depends on donor and acceptor labels being close together.

A further experiment deals with T2, LZK (Homo sapiens, UniProt O43283).
T2 construct: 10 nM LZK, catalytic domain, Carna Biosiences in assay buffer; purchased Carna Biosciences ('Carna Biosiences' [sic])
T2 sequence (O43283 168-409 limits assumed): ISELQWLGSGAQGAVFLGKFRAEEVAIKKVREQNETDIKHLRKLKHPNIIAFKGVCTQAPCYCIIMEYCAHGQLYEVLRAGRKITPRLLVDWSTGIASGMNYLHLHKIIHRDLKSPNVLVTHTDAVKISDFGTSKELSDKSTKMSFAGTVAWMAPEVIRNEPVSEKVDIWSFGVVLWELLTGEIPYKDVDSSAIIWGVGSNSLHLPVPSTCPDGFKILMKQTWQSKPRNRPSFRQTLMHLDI
The experiment in a line: LZK biochemical assay (TR-FRET, MKK7 phosphorylation). The following applies: LZK catalytic domain, MKK7 substrate, 15 μM ATP.

The structures appear in SMILES notation.

Take `CC[C@H](C)NC(=O)c1cc(-c2cnn(C(c3cncc(Cl)c3)C(C)C)c2)cn2nc(N)nc12` (single isomer, unassigned) [Example I-63]: the half-maximal inhibitory concentration (IC50) at DLK stood at 0.4 nM; against LZK, 5.2 nM.
With `CCC(c1ccc(C(F)F)nc1)n1cc(-c2cc(C(=O)N[C@@H](C)CC)c3nc(N)nn3c2)cn1` (single isomer, unassigned) [Example I-65], the IC50 came to 25 nM against DLK and 33 nM on LZK.
Turning to `CCC(c1ccc(C(F)F)nc1)n1cc(-c2cc(C(=O)N[C@@H](C)CC)c3nc(N)nn3c2)cn1` (single isomer, unassigned) [Example I-66], the 50% inhibitory concentration (IC50) on DLK was 0.8 nM; on LZK, 4.1 nM.
As for `CC[C@H](C)NC(=O)c1cc(-c2cnn(C(c3ccc(C(F)F)nc3)C(C)C)c2)cn2nc(N)nc12` (single isomer, unassigned) [Example I-68], the half-maximal inhibitory concentration (IC50) at DLK is 14 nM; against LZK, 43 nM.
For the compound `CC[C@H](C)NC(=O)c1cc(-c2cnn(C(c3ccc(C(F)F)nc3)C(C)C)c2)cn2nc(N)nc12` (single isomer, unassigned) [Example I-69], the IC50 on DLK stood at 1 nM; against LZK, 3.9 nM.
For `CC[C@H](C)NC(=O)c1cc(-c2cnn([C@@H](CC)c3ccc(C(F)(F)F)nc3)c2)cn2nc(N)nc12` (single isomer, unassigned) [Example I-71] the same measures were 1.4 nM and 4.5 nM.
The like results for `CC[C@H](c1ccc(C(F)(F)F)nc1)n1cc(-c2cc(C(=O)N[C@@H](C)CC)c3nc(N)nn3c2)cn1` (single isomer, unassigned) [Example I-72] were, in that order, 10 nM and 16 nM.
The like results for `CC[C@H](C)NC(=O)c1cc(-c2cnn(C(c3ccc(C(F)(F)F)nc3)C(C)C)c2)cn2nc(N)nc12` (single isomer, unassigned) [Example I-74] were, in that order, 10 nM and 16 nM.
Consider `CC[C@H](C)NC(=O)c1cc(-c2cnn([C@H](c3ccc(C(F)(F)F)nc3)C(C)C)c2)cn2nc(N)nc12` (single isomer, unassigned) [Example I-75], for which the half-inhibitory concentration (IC50) against DLK amounted to 1.1 nM; against LZK, 2.4 nM.
Consider `CC[C@H](C)NC(=O)c1cc(-c2cnn(C(c3ccc(C(F)(F)F)nc3)C3CCOCC3)c2)cn2nc(N)nc12` (single isomer, unassigned) [Example I-77], for which the concentration for half-maximal inhibition (IC50) worked out at 5.9 nM on DLK and 6.9 nM on LZK.
For `CC[C@H](C)NC(=O)c1cc(-c2cnn(C(c3ccc(C(F)(F)F)nc3)C3CCOCC3)c2)cn2nc(N)nc12` (single isomer, unassigned) [Example I-78] the same measures were 0.7 nM and 1.7 nM.
For the compound `CC[C@H](C)NC(=O)c1cc(-c2cnn(C(c3ccc(C(F)(F)F)nc3)C3CCNCC3)c2)cn2nc(N)nc12` (single isomer, unassigned) [Example I-82], the figures for the IC50 against DLK and against LZK were 0.9 nM and 0.5 nM, respectively.
As for `CC[C@H](C)NC(=O)c1cc(-c2cnn(C(c3ccc(C(F)(F)F)nc3)C3CCNCC3)c2)cn2nc(N)nc12` (single isomer, unassigned) [Example I-83], the half-inhibitory concentration (IC50) at DLK is 0.3 nM; against LZK, 0.7 nM.
Regarding `CCC(c1ccc(OCC(F)(F)F)nc1)n1cc(-c2cc(C(=O)N[C@@H](C)CC)c3nc(N)nn3c2)cn1` (single isomer, unassigned) [Example I-86], the IC50 against DLK amounted to 100 nM; at LZK it was 160 nM.
The like results for `CCC(c1ccc(OCC(F)(F)F)nc1)n1cc(-c2cc(C(=O)N[C@@H](C)CC)c3nc(N)nn3c2)cn1` (single isomer, unassigned) [Example I-87] were, in that order, 1.3 nM and 16 nM.
For `CC[C@H](C)NC(=O)c1cc(-c2cnn(C(c3ccc(OCC(F)(F)F)nc3)C(C)C)c2)cn2nc(N)nc12` (single isomer, unassigned) [Example I-89], the results for the 50% inhibitory concentration (IC50) on DLK and at LZK were 230 nM and 2000 nM, respectively.
